Laboratory results from US10085990B2, “Tricyclic compounds as modulators of TNF-α synthesis and as PDE4 inhibitors” (vTv Therapeutics LLC, priority 2008, dated 2018).
Counter-ions that a name gives are not always drawn.

These compounds were tested on TNF synthesis in human PBMC (assay: Human PBMC TNF Synthesis Assay). Conditions: LPS-stimulated human PBMC, overnight incubation, TNF ELISA; read-out: TNF inhib.
Format: cell-based
Experimental: Human PBMC TNF Synthesis Assay
Human PBMC were obtained by from a healthy human donor leuko pak. Typically, all donors were pre-screened for STD, HIV and have been given a physical by a physician. One to two ampoules were thawed at 37° C. and then resuspended in 45 to 85 mL of RPMI+10% FBS to a final concentration of 2.5×10^6 cells/mL. Resuspended cells were filtered to remove any large clumps.
Prepare compounds for addition to cells: All compounds were DMSO stocks at 20 mM. Working stock for cell testing were prepared as 4× concentrated material in RPMI+10% FBS. Compounds were added to a polypropylene block and then diluted with the appropriate amount of RPMI+10% FBS. Typically 2.6 μL of 20 mM stock was diluted to 650 μL final volume to yield an 80 μM starting concentration in the stocks. RPMI was added to DMSO stock by pipetting into the tube or block. The compounds were then serial diluted with RPMI+10% FBS. The final DMSO concentrations were not greater than 0.5% in the assay.
Compounds were added to the cells as 4× working stock. 50 μL of compound was prepared above is added to the cells and re-equilibrated in a humidified 5% CO2 incubator at 37° C. for 30 minutes.
A stock of LPS was prepared using RPMI+10% FBS. To prepare the stock, 2.8 μL of LPS (5 mg/mL; Sigma Cat #L3024) was added to 35 mL of media. 50 μL of the LPS in media was added to the cells. Control cultures without LPS received only RPMI+10% FBS. After an overnight incubation at 37° C., the cell culture supernatant was harvested and stored in a polypropylene 96 well plate.
Samples were tested for TNF as per the manufacturer's instructions (TNF ELISA; R&D Systems, Cat #DY210). The samples were serially diluted with PBS+1% BSA to the appropriate dilution condition for the cell prep, typically a 1:4 or 1:6 dilution.

In order of falling IC50:
1. COC(=O)N1CCC(n2c(=O)n(-c3cccc(Cl)c3)c(=O)c3cnc4c(OC)cccc4c32)CC1 [Example 124, 4-[3-(3-Chloro-phenyl)-7-methoxy-2,4-dioxo-3,4-dihydro-2H-pyrimido[5,4-c]quinolin-1-yl]-piperidine-1-carboxylic acid methyl ester]  50000 nM
2. COc1cccc2c1ncc1c(=O)n(-c3cccc(Cl)c3)c(=O)n([C@H]3CCNC3)c12 [Example 117, (S)-3-(3-Chloro-phenyl)-7-methoxy-1-pyrrolidin-3-yl-1H-pyrimido[5,4-c]quinoline-2,4-dione.dihydrochloride]  1000 nM
3. COc1cccc2c1ncc1c(=O)n(-c3ccc4c(c3)OCCO4)c(=O)n(C3CCCC3)c12 [Example 120, 1-Cyclopentyl-3-(2,3-dihydro-benzo[1,4]dioxin-6-yl)-7-methoxy-1H-pyrimido[5,4-c]quinoline-2,4-dione]  240 nM
4. COc1cccc2c1ncc1c(=O)n(-c3cccc(Cl)c3)c(=O)n([C@@H]3CCNC3)c12 [Example 114, (R)-3-(3-Chloro-phenyl)-7-methoxy-1-pyrrolidin-3-yl-1H-pyrimido[5,4-c]quinoline-2,4-dione.dihydrochloride]  31 nM
5. COc1cccc2c1ncc1c(=O)n(-c3cccc(Cl)c3)c(=O)n([C@H]3CC[C@H](NS(C)(=O)=O)CC3)c12 [Example 127, N-{4-[(S)-3-(3-Chloro-phenyl)-7-methoxy-2,4-dioxo-3,4-dihydro-2H-pyrimido[5,4-c]quinolin-1-yl]-trans-cyclohexyl}-methanesulfonamide]  6 nM
6. COc1cccc2c1ncc1c(=O)n(-c3cccc(Cl)c3)c(=O)n([C@H]3CCN(C(=O)OC(C)(C)C)C3)c12 [Example 116, 3-[(S)-3-(3-Chloro-phenyl)-7-methoxy-2,4-dioxo-3,4-dihydro-2H-pyrimido[5,4-c]quinolin-1-yl]-pyrrolidine-1-carboxylic acid tert-butyl ester]  2 nM
7. COc1cccc2c1ncc1c(=O)n(-c3cccc(Cl)c3)c(=O)n(CC3CCN(S(C)(=O)=O)CC3)c12 [Example 126, 3-(3-Chloro-phenyl)-1-(1-methanesulfonyl-piperidin-4-ylmethyl)-7-methoxy-1H-pyrimido[5,4-c]quinoline-2,4-dione]  2 nM
8. COc1cccc2c1ncc1c(=O)n(-c3cccc(Cl)c3)c(=O)n([C@@H]3CCN(C(=O)OC(C)(C)C)C3)c12 [Example 113, 3-[(R)-3-(3-Chloro-phenyl)-7-methoxy-2,4-dioxo-3,4-dihydro-2H-pyrimido[5,4-c]quinolin-1-yl]-pyrrolidine-1-carboxylic acid tert-butyl ester]  0.3 nM
